According to patent US8912150B2, “Ribosome structure and protein synthesis inhibitors” (Rib-X Pharmaceuticals, Inc., priority 2001, dated 2014):

Columns and labels:
E. coli S30 extract = format: biochemical
[1] = molecular target: rabbit reticulocyte lysate; assay: Translation inhibition in rabbit reticulocyte lysate system (luciferase mRNA); format: biochemical
ribosomes [2] = settings: macrolide-poisoned ribosomes; cited from earlier work
ribosomes [3] = settings: S. pneumoniae; cited from earlier work
[4] = system: ribosome peptidyl transferase; settings: cited from earlier work

Compound: COc1ccc(C[C@H]2NC[C@H](O)[C@H]2OC(C)=O)cc1 [anisomycin]
- IC50 (E. coli S30 extract): > 100 µM
- IC50 [1]: 0.19 µM

Compound: O=C(N[C@H](CO)[C@H](O)c1ccc([N+](=O)[O-])cc1)C(Cl)Cl [chloramphenicol]
- IC50 (E. coli S30 extract): 12.3 µM
- IC50 [1]: > 100 µM

Compound: spiramycin
- length of oligopeptides synthesized in presence of macrolide (ribosomes [2]): allow formation of only dipeptides

Compound: CC[C@H]1OC(=O)[C@H](C)C(=O)[C@H](C)[C@@H](O[C@@H]2O[C@H](C)C[C@H](N(C)C)[C@H]2O)[C@](C)(OCC=Cc2cnc3ccccc3c2)C[C@@H](C)C(=O)[C@H](C)[C@H]2NC(=O)O[C@@]21C [ABT-773]
- ribosome binding relative to erythromycin (ribosomes [3]): binds ribosomes tighter than erythromycin

Compound: CC[C@H]1OC(=O)[C@H](C)[C@@H](O[C@H]2C[C@@](C)(OC)[C@@H](O)[C@H](C)O2)[C@H](C)[C@@H](O[C@@H]2O[C@H](C)C[C@H](N(C)C)[C@H]2O)[C@](C)(O)C[C@@H](C)C(=O)[C@H](C)[C@@H](O)[C@]1(C)O [erythromycin]
- length of oligopeptides synthesized in presence of macrolide (ribosomes [2]): permit the formation of tetrapeptides

Compound: CCdA-phosphate-puromycin [CCdA-p-Puro]
- binding to the ribosome [4]: binds tightly to the ribosome
- inhibition of peptidyl transferase activity [4]: inhibits its peptidyl transferase activity

Compound: CO[C@@H]1[C@@H](O[C@@H]2O[C@H](C)[C@@H](O[C@H]3C[C@@](C)(O)[C@@H](OC(=O)CC(C)C)[C@H](C)O3)[C@H](N(C)C)[C@H]2O)[C@@H](CC=O)C[C@@H](C)C(=O)/C=C/[C@@H]2O[C@H]2C[C@@H](C)OC(=O)C[C@H]1OC(C)=O [carbomycin A]
- length of oligopeptides synthesized in presence of macrolide (ribosomes [2]): strongly inhibits the formation of even the first peptide bond

Compound: CC[C@H]1OC(=O)C[C@@H](O)[C@H](C)[C@@H](O[C@@H]2O[C@H](C)[C@@H](O[C@H]3C[C@@](C)(O)[C@@H](O)[C@H](C)O3)[C@H](N(C)C)[C@H]2O)[C@@H](CC=O)C[C@@H](C)C(=O)/C=C/C(C)=C/[C@@H]1CO[C@@H]1O[C@H](C)[C@@H](O)[C@@H](OC)[C@H]1OC [tylosin]
- length of oligopeptides synthesized in presence of macrolide (ribosomes [2]): allow formation of only dipeptides
